Experiments:
[1] = molecular target: Epidermal Growth Factor Receptor (EGFR) (Homo sapiens (Human), UniProt P00533); assay: EGFR kinase assay (TR-FRET); type: biochemical; conditions: E-notation values; unit inferred; read-out: EGFR-assay IC50
In short: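 EGFR purified from A431 cells was preincubated with compound 15 min at 22° C in pH 7.0 Hepes buffer with MgCl2, MnCl2 and vanadate before reaction with a biotinylated peptide. After EDTA stop, phosphopeptide was detected by TR-FRET (anti-phosphotyrosine Tb-cryptate, streptavidin-XL665) as the 665/620 nm emission ratio.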

[2] = molecular target: human SOS1 (loading of human K-Ras^G12C-GDP with fluorescent GTP-analog) (Homo sapiens, UniProt Q07889); assay: Biochemical assay 3: K-Ras^G12C activation assay by hSOS1 (HTRF); conditions: E-notation values; unit inferred; read-out: Assay 3 (KRAS-Activation) IC50

Epidermal Growth Factor Receptor (EGFR), sequence (P00533 25-1210): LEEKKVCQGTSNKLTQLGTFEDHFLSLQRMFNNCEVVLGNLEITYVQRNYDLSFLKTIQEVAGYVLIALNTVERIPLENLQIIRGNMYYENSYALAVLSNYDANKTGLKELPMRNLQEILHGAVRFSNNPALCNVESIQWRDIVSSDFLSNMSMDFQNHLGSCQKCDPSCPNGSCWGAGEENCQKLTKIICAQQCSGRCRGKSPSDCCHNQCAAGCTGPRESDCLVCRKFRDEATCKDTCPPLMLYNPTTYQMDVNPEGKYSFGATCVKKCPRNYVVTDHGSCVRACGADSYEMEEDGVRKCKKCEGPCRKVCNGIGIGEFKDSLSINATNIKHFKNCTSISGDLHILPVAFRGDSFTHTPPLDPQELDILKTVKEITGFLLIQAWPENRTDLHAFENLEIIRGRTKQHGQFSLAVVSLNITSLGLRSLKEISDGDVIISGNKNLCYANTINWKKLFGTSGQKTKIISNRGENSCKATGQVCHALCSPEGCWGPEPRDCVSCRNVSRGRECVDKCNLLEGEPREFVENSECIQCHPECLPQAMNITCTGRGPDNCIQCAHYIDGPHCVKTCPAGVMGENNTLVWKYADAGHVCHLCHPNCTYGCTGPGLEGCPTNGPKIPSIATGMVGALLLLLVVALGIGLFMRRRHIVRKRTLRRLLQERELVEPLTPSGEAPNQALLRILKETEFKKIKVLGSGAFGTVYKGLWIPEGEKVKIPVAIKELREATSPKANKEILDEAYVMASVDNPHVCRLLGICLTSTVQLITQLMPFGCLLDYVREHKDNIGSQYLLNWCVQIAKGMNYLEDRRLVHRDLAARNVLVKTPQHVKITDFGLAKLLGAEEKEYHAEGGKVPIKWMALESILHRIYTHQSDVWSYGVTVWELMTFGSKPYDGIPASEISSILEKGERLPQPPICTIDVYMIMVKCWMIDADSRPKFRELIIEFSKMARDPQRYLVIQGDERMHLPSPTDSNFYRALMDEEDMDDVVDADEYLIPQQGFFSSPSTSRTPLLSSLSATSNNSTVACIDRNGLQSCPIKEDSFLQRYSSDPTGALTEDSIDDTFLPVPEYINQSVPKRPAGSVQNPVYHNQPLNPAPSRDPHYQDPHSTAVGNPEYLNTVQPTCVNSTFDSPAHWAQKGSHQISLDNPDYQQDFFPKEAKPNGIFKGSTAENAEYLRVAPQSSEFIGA

Cc1ccc2nc(C)nc(N[C@H](C)c3cccc(Cl)c3)c2c1 [Example 404, N-[(1R)-1-(3-chlorophenyl)ethyl]-2,6-dimethylquinazolin-4-amine]
IC50 [1]: > 20 µM
IC50 [2]: 9.3 µM

Cc1nc(N[C@H](C)c2cccc(Cl)c2)c2cc(-c3cn[nH]c3)ccc2n1 [Example 405, N-[(1R)-1-(3-chlorophenyl)ethyl]-2-methyl-6-(1H-pyrazol-4-yl)quinazolin-4-amine]
IC50 [1]: > 20 µM
IC50 [2]: 1.31 µM

Cc1nc(N[C@H](C)c2cccc(Cl)c2)c2cc(-c3cnn(C)c3)ccc2n1 [Example 406, N-[(1R)-1-(3-chlorophenyl)ethyl]-2-methyl-6-(1-methyl-1H-pyrazol-4-yl)quinazolin-4-amine]
IC50 [1]: > 20 µM
IC50 [2]: 0.855 µM

Cc1nc(N[C@H](C)c2cccc(Cl)c2)c2cc(C3CC3)ccc2n1 [Example 407, N-[(1R)-1-(3-chlorophenyl)ethyl]-6-cyclopropyl-2-methylquinazolin-4-amine]
IC50 [1]: > 20 µM
IC50 [2]: 2.14 µM

COc1cc2nc(C)nc(NC(C)c3ccc(-c4c(Cl)cccc4CNC(=O)OC(C)(C)C)s3)c2cc1OC (stereo not shown) [Example 408, tert-butyl [3-chloro-2-(5-{1-[(6,7-dimethoxy-2-methylquinazolin-4-yl)amino]ethyl}thiophen-2-yl)benzyl]carbamate]
IC50 [1]: > 20 µM
IC50 [2]: 1.02 µM

COc1cc2nc(C)nc(NC(C)c3ccc(-c4c(Cl)cccc4CN)s3)c2cc1OC (stereo not shown) [Example 409, N-[1-{5-[2-(aminomethyl)-6-chlorophenyl]thiophen-2-yl}ethyl]-6,7-dimethoxy-2-methylquinazolin-4-amine]
IC50 [1]: > 20 µM
IC50 [2]: 0.0316 µM

COc1cc2nc(C)nc(NC(C)c3ccc(-c4ccnc(O)c4)s3)c2cc1OC (stereo not shown) [Example 410, 4-(5-{1-[(6,7-dimethoxy-2-methylquinazolin-4-yl)amino]ethyl}-2-thienyl)pyridin-2-ol]
IC50 [1]: > 20 µM
IC50 [2]: > 20 µM

COc1cc2nc(C)nc(NC(C)c3ccc(-c4ccccc4C4CC(=O)N4)s3)c2cc1OC (stereo not shown) [Example 411, 4-[2-(5-{1-[(6,7-dimethoxy-2-methylquinazolin-4-yl)amino]ethyl}thiophen-2-yl)phenyl]azetidin-2-one]
IC50 [1]: > 20 µM
IC50 [2]: > 20 µM

COc1cc2nc(C)nc(NC(C)c3ccc(-c4ccc(C#N)cc4CN(C)C)s3)c2cc1OC (stereo not shown) [Example 413, 4-(5-{1-[(6,7-dimethoxy-2-methylquinazolin-4-yl)amino]ethyl}thiophen-2-yl)-3-[(dimethylamino)methyl]benzonitrile]
IC50 [1]: > 20 µM
IC50 [2]: 0.213 µM

Cc1nc(NC(C)c2ccc(Br)s2)c2cc(N3CCC(N(C)C)C3)ccc2n1 (stereo not shown) [Example 414, N-[1-(5-bromothiophen-2-yl)ethyl]-6-[3-(dimethylamino)pyrrolidin-1-yl]-2-methylquinazolin-4-amine]
IC50 [1]: > 20 µM
IC50 [2]: 1.46 µM

Cc1nc(NC(C)c2ccc(Br)s2)c2cc(N3CCN(C)CC3)ccc2n1 (stereo not shown) [Example 416, N-[1-(5-bromothiophen-2-yl)ethyl]-2-methyl-6-(4-methylpiperazin-1-yl)quinazolin-4-amine]
IC50 [1]: > 20 µM
IC50 [2]: 1.14 µM

Cc1nc(NC(C)c2ccc(-c3ccccc3CN(C)C)s2)c2cc(N3CCN(C)CC3)ccc2n1 (stereo not shown) [Example 417, N-[1-(5-{2-[(dimethylamino)methyl]phenyl}thiophen-2-yl)ethyl]-2-methyl-6-(4-methylpiperazin-1-yl)quinazolin-4-amine]
IC50 [1]: > 20 µM
IC50 [2]: 0.0353 µM

Cc1nc(NC(C)c2ccc(-c3ccccc3CN(C)C)s2)c2cc(N3CCC(N(C)C)C3)ccc2n1 (stereo not shown) [Example 418, N-[1-(5-{2-[(dimethylamino)methyl]phenyl}thiophen-2-yl)ethyl]-6-[3-(dimethylamino)pyrrolidin-1-yl]-2-methylquinazolin-4-amine]
IC50 [1]: > 20 µM
IC50 [2]: 0.0451 µM

Cc1nc(NC(C)c2ccc(Br)s2)c2cc(N3CCCC3)ccc2n1 (stereo not shown) [Example 419, N-[1-(5-bromothiophen-2-yl)ethyl]-2-methyl-6-(pyrrolidin-1-yl)quinazolin-4-amine]
IC50 [1]: > 20 µM
IC50 [2]: 14.3 µM

CC(=O)Nc1ccc2nc(C)nc(NC(C)c3ccc(-c4ccccc4CN(C)C)s3)c2c1 (stereo not shown) [Example 420, N-(4-{[1-(5-{2-[(dimethylamino)methyl]phenyl}thiophen-2-yl)ethyl]amino}-2-methylquinazolin-6-yl)acetamide]
IC50 [1]: > 20 µM
IC50 [2]: 0.579 µM

COc1ccc(-c2ccc(C(C)Nc3nc(C)nc4cc(OC)c(OC)cc34)s2)c(C)c1 (stereo not shown) [Example 422, 6,7-dimethoxy-N-{1-[5-(4-methoxy-2-methylphenyl)thiophen-2-yl]ethyl}-2-methylquinazolin-4-amine]
IC50 [1]: > 20 µM
IC50 [2]: 3.6 µM

Cc1nc(NC(C)c2ccc(-c3ccccc3CN(C)C)s2)c2cc(N)ccc2n1 (stereo not shown) [Example 423, N4-[1-(5-{2-[(dimethylamino)methyl]phenyl}-2-thienyl)ethyl]-2-methylquinazoline-4,6-diamine]
IC50 [1]: > 20 µM
IC50 [2]: 0.303 µM

Cc1nc(NC(C)c2ccc(Br)s2)c2cc(N3CCN(Cc4cccnc4)CC3)ccc2n1 (stereo not shown) [Example 424, N-[1-(5-bromothiophen-2-yl)ethyl]-2-methyl-6-[4-(pyridin-3-ylmethyl)piperazin-1-yl]quinazolin-4-amine]
IC50 [1]: > 20 µM
IC50 [2]: 3.76 µM

Cc1nc(NC(C)c2ccc(Br)s2)c2cc(NCCN3CCOCC3)ccc2n1 (stereo not drawn) [Example 425, N4-[l-(5-bromo-2-thienyl)ethyl]-2-methyl-N6-[2-(morpholin-4-yl)ethyl]quinazoline-4,6-diamine]
IC50 [1]: > 20 µM
IC50 [2]: 11.2 µM

Cc1nc(NC(C)c2ccc(-c3ccccc3CN(C)C)s2)c2cc(N3CCN(Cc4cccnc4)CC3)ccc2n1 (stereo not shown) [Example 426, N-[1-(5-{2-[(dimethylamino)methyl]phenyl}thiophen-2-yl)ethyl]-2-methyl-6-[4-(pyridin-3-ylmethyl)piperazin-1-yl]quinazolin-4-amine]
IC50 [1]: 4.95 µM
IC50 [2]: 0.0315 µM

CC(=O)NCCNc1ccc2nc(C)nc(NC(C)c3ccc(-c4ccccc4CN(C)C)s3)c2c1 (stereo not shown) [Example 427, N-{2-[(4-{[1-(5-{2-[(dimethylamino)methyl]phenyl}thiophen-2-yl)ethyl]amino}-2-methylquinazolin-6-yl)amino]ethyl}acetamide]
IC50 [1]: > 20 µM
IC50 [2]: 0.0739 µM

COc1cc2nc(C)nc(NC(C)c3sc(Br)cc3Cl)c2cc1OC (stereo not shown) [Example 428, N-[1-(5-bromo-3-chlorothiophen-2-yl)ethyl]-6,7-dimethoxy-2-methylquinazolin-4-amine]
IC50 [1]: > 20 µM
IC50 [2]: 1.02 µM

COc1cc2nc(C)nc(NC(C)c3sc(-c4ccccc4CNC(=O)OC(C)(C)C)cc3Cl)c2cc1OC (stereo not shown) [Example 429, tert-butyl [2-(4-chloro-5-{1-[(6,7-dimethoxy-2-methylquinazolin-4-yl)amino]ethyl}thiophen-2-yl)benzyl]carbamate]
IC50 [1]: > 20 µM
IC50 [2]: 5.04 µM

COc1cc2nc(C)nc(NC(C)c3cc(Cl)c(-c4ccccc4CN)s3)c2cc1OC (stereo not shown) [Example 430, N-[1-{5-[2-(aminomethyl)phenyl]-4-chlorothiophen-2-yl}ethyl]-6,7-dimethoxy-2-methylquinazolin-4-amine]
IC50 [1]: > 20 µM
IC50 [2]: 0.584 µM

COc1cc2nc(C)nc(NC(C)c3cc(Cl)c(-c4ccccc4CN(C)C)s3)c2cc1OC (stereo not shown) [Example 431, N-[1-(4-chloro-5-{2-[(dimethylamino)methyl]phenyl}thiophen-2-yl)ethyl]-6,7-dimethoxy-2-methylquinazolin-4-amine]
IC50 [1]: > 20 µM
IC50 [2]: 0.302 µM

COc1cc2nc(C)nc(NC(C)c3cc(Cl)c(Br)s3)c2cc1OC (stereo not shown) [Example 432, N-[1-(5-bromo-4-chlorothiophen-2-yl)ethyl]-6,7-dimethoxy-2-methylquinazolin-4-amine]
IC50 [1]: > 20 µM
IC50 [2]: > 20 µM

Cc1nc(NC(C)c2ccc(-c3ccccc3CN(C)C)s2)c2cc(NCCN3CCOCC3)ccc2n1 (stereo not shown) [Example 433, N4-[1-(5-{2-[(dimethylamino)methyl]phenyl}-2-thienyl)ethyl]-2-methyl-N6-[2-(morpholin-4-yl)ethyl]quinazoline-4,6-diamine]
IC50 [1]: > 20 µM
IC50 [2]: 0.0769 µM

Cc1nc(NC(C)c2ccc(Br)s2)c2cc(N3CCN(C)C(=O)C3)ccc2n1 (stereo not shown) [Example 434, 4-(4-{[1-(5-bromothiophen-2-yl)ethyl]amino}-2-methylquinazolin-6-yl)-1-methylpiperazin-2-one]
IC50 [1]: 16.6 µM
IC50 [2]: 2.81 µM

Cc1nc(NC(C)c2ccc(-c3ccccc3CN(C)C)s2)c2cc(N3CCN(C)C(=O)C3)ccc2n1 (stereo not shown) [Example 435, 4-(4-{[1-(5-{2-[(dimethylamino)methyl]phenyl}thiophen-2-yl)ethyl]amino}-2-methylquinazolin-6-yl)-1-methylpiperazin-2-one]
IC50 [1]: > 20 µM
IC50 [2]: 0.0686 µM

COC(=O)C(C)(C)c1ccccc1-c1ccc(C(C)Nc2nc(C)nc3cc(OC)c(OC)cc23)s1 (stereo not shown) [Example 436, methyl 2-[2-(5-{1-[(6,7-dimethoxy-2-methylquinazolin-4-yl)amino]ethyl}thiophen-2-yl)phenyl]-2-methylpropanoate]
IC50 [1]: > 20 µM
IC50 [2]: 1.77 µM

COc1cc2nc(C)nc(NC(C)c3sc(-c4ccccc4CN)cc3Cl)c2cc1OC (stereo not shown) [Example 437, N-[1-{5-[2-(aminomethyl)phenyl]-3-chlorothiophen-2-yl}ethyl]-6,7-dimethoxy-2-methylquinazolin-4-amine]
IC50 [1]: > 20 µM
IC50 [2]: 0.16 µM

Cc1nc(NC(C)c2ccc(-c3ccccc3CN(C)C)s2)c2cc(NS(C)(=O)=O)ccc2n1 (stereo not shown) [Example 438, N-(4-{[1-(5-{2-[(dimethylamino)methyl]phenyl}thiophen-2-yl)ethyl]amino}-2-methylquinazolin-6-yl)methanesulfonamide]
IC50 [1]: > 20 µM
IC50 [2]: 0.116 µM

Source: patent US20240083857A1, “2-Methyl-Quinazolines” (Bayer Pharma Aktiengesellschaft, priority 2017, published 2024)
